{"source": "patent US10195165B2", "about": "“Methods of treating Prader-Willi syndrome” (Ovid Therapeutics Inc., priority 2015, dated 2019)", "origin": "cited, not measured here", "key": {"[1]": {"test_system": "brain-derived neurotrophic factor (BDNF)"}, "[2]": {"test_system": "C57B16 mice", "details": "3 and 5 mg/kg intraperitoneal once daily for 7 days"}, "[3]": {"target": "T1, dopamine D3 (Homo sapiens, UniProt P35462)"}, "[4]": {"test_system": "C57B16 mice", "details": "3 and 5 mg/kg intraperitoneal once daily for 7 days", "remark": "listed apart in the source"}, "[5]": {"test_system": "C57B16 mice", "details": "3 and 5 mg/kg intraperitoneal once daily for 7 days", "remark": "listed apart in the source"}, "[6]": {"target": "T2, Sigma 1 receptor (Homo sapiens, UniProt Q99720)", "T2 sequence (Q99720 whole entry, species assumed)": "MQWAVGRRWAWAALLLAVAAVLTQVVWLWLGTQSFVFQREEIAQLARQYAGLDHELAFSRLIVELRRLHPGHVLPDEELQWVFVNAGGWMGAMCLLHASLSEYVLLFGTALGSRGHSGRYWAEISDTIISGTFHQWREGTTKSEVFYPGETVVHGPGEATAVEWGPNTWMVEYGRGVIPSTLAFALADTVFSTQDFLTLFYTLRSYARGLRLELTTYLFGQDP"}, "[7]": {"test_system": "subjects with mild to moderate anxiety weaned from benzodiazepine"}, "[8]": {"target": "T1, dopamine D3", "parameters": "Novascreen", "details": "1 μM captodiamine competing with a reference ligand"}, "[9]": {"test_system": "C57B16 mice", "details": "3 and 5 mg/kg intraperitoneal once daily for 7 days", "remark": "listed apart in the source"}, "[10]": {"target": "T3, Sigma 2 receptor (Homo sapiens, UniProt Q5BJF2)", "T3 construct": "Novascreen", "T3 sequence (Q5BJF2 whole entry, species assumed)": "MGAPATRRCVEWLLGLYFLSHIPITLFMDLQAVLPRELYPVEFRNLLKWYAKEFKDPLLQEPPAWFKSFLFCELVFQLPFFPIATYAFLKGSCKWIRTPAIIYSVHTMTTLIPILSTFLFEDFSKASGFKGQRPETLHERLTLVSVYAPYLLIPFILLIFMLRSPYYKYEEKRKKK", "details": "1 μM captodiamine competing with a reference ligand"}, "[11]": {"test_system": "car driving ability of individuals", "details": "compared to lorazepam"}, "[12]": {"test_system": "C57B16 mice", "details": "3 and 5 mg/kg intraperitoneal once daily for 7 days", "remark": "listed apart in the source"}, "[13]": {"target": "T4, 5-HT2C (Homo sapiens, UniProt P28335)", "T4 sequence (P28335 33-458)": "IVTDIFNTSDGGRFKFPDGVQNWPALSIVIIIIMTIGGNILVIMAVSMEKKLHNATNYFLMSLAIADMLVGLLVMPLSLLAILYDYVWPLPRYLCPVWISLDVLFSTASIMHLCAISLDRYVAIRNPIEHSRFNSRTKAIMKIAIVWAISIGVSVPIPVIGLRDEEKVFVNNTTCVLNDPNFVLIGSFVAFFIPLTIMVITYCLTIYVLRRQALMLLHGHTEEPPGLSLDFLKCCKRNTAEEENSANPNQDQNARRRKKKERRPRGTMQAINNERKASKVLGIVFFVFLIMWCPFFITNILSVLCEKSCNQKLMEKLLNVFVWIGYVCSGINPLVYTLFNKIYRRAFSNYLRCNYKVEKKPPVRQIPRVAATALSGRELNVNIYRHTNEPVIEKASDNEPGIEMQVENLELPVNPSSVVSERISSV"}, "[14]": {"test_system": "C57B16 mice", "details": "3 mg/kg dose, intraperitoneal; one-tailed t-test"}, "[15]": {"target": "T2, Sigma 1 receptor", "parameters": "Novascreen", "details": "1 μM captodiamine competing with a reference ligand"}, "[16]": {"test_system": "Brain Derived Neurotrophic Factor (BDNF)"}, "[17]": {"target": "T5, serotonin 5HT2c receptor (Homo sapiens, UniProt P28335)", "T5 construct": "Novascreen", "T5 sequence (P28335 33-458)": "T4 sequence (P28335 33-458)", "details": "1 μM captodiamine competing with a reference ligand"}, "[18]": {"test_system": "Glial Derived Neurotrophic Factor (GDNF)"}}, "data": [{"smiles": "CCCCSc1ccc(C(SCCN(C)C)c2ccccc2)cc1", "note": "(stereo not drawn) [captodiamine, 2-[(4-butylsulfanylphenyl)-phenylmethyl]sulfanyl-N,N-dimethylethanamine]", "values": [{"measurement": "BDNF protein levels, hypothalamus", "setting": "[1]", "result": "increase brain-derived neurotrophic factor (BDNF) protein levels in the hypothalamus"}, {"measurement": "exploring the open arms of the elevated X-maze", "setting": "[2]", "result": "significantly longer periods exploring the open arms"}, {"measurement": "activity at dopamine D3", "setting": "[3]", "result": "dopamine D3 agonist"}, {"measurement": "water maze spatial learning task", "setting": "[4]", "result": "significant pro-cognitive action"}, {"measurement": "time to immobility in the forced swim test", "setting": "[5]", "result": "significant increase on time to immobility"}, {"measurement": "activity at sigma-1 receptor", "setting": "[6]", "result": "sigma-1 receptor agonist"}, {"measurement": "Tyrer Benzodiazepine Withdrawal Symptom Questionnaire (BWSQ) score", "setting": "[7]; 150 mg/d for 45 days versus placebo, primary outcome", "result": "statistically significant difference (p<0.0001; ANCOVA with repeated measures) between the two study groups in favor of captodiamine"}, {"measurement": "drowsiness score", "setting": "[7]; 150 mg/d versus placebo", "result": "declined from D0"}, {"measurement": "self-reported anxiety scores", "setting": "[7]; 150 mg/d versus placebo, weaning and assessment phases", "result": "anxiety scores evolved little during the weaning phase and then fell during the assessment phase"}, {"measurement": "re-emergence of anxiety or withdrawal symptoms after stopping captodiamine", "setting": "[7]; after treatment stopped at 45 days", "result": "no re-emergence of anxiety or evidence for withdrawal symptoms"}, {"measurement": "severity of benzodiazepine withdrawal symptoms", "setting": "[7]; compared to placebo, background summary", "result": "lower severity of benzodiazepine withdrawal symptoms"}, {"measurement": "percent target inhibition, dopamine D3 receptor", "setting": "[8]", "result": "greater than 80%"}, {"measurement": "basal locomotion in the open-field paradigm", "setting": "[9]", "result": "no influence on basal locomotion"}, {"measurement": "time in the center of the arena (open-field)", "setting": "[9]", "result": "significantly more time in the center"}, {"measurement": "percent target inhibition, Sigma 2 receptor", "setting": "[10]", "result": "greater than 20%"}, {"measurement": "concentration and dexterity when driving", "setting": "[11]", "result": "improved the concentration and dexterity"}, {"measurement": "tendency to drowsiness when driving", "setting": "[11]", "result": "without inducing a tendency to drowsiness"}, {"measurement": "pre-pulse inhibition paradigm", "setting": "[12]", "result": "no effect on the pre-pulse inhibition paradigm"}, {"measurement": "activity at 5-HT2C", "setting": "[13]", "result": "5-HT2C antagonist"}, {"measurement": "time investigating objects during the training phase, Novel Object Recognition Task", "setting": "[14]", "result": "significantly longer investigating objects during the training phase"}, {"measurement": "percent target inhibition, Sigma 1 receptor", "setting": "[15]", "result": "greater than 90%"}, {"measurement": "BDNF expression levels and/or activity, hippocampus", "setting": "[16]; hippocampus", "result": "no effect"}, {"measurement": "levels of expression of BDNF, hypothalamus", "setting": "[16]; hypothalamus", "result": "significantly increased"}, {"measurement": "BDNF expression levels and/or activity, prefrontal cortex", "setting": "[16]; prefrontal cortex", "result": "no effect"}, {"measurement": "percent target inhibition, serotonin 5HT2c receptor", "setting": "[17]", "result": "greater than 80%"}, {"measurement": "levels of expression of GDNF, hypothalamus", "setting": "[18]; hypothalamus", "result": "not in either the hippocampus or the hypothalamus"}, {"measurement": "levels of expression of GDNF, prefrontal cortex", "setting": "[18]; prefrontal cortex", "result": "significantly decreased"}]}]}
